Measured values taken from patent publication US10597387B2, “Methods to treat lymphoplasmacytic lymphoma” (Dana-Farber Cancer Institute, Inc., priority 2013, dated 2020).
Blank lines part the entries; values can stand above or below the compound they belong to.

Assays:
[1] = target: BTK (Homo sapiens (Human), UniProt Q06187); assay: Invitrogen Select Screening kinase assay; type: biochemical; settings: in vitro
Excerpt: The in vitro activity of the compounds described herein in inhibiting TAK1, HCK, and other kinases were obtained using an Invitrogen Select Screening assay as known in the art. The IC50 values determined from this assay are shown below.

[2] = tested on: Ramos; assay: CellTiter-Glo cell viability assay; type: cell-based; settings: 72 hours
Procedure: (§1) CellTiter-Glo® Luminescent cell viability assay (Promega) was used to assess cell survival following treatment with the compounds described. Cells were seeded into 384 well plates with the EL406 Combination Washer Dispenser (BioTek Instruments, Inc.), and the compounds were injected into the cells culture media with the JANUS Automated Workstation (PerkinElmer Inc.). Cells were treated with a series diluted inhibitors (20˜0.04 μM) for 72 hours at 37° C. Luminescent measurement is performed using the 2104 Envision® Multilabel Reader (PerkinElmer Inc.).

[3] = tested on: MWCL-1; assay: CellTiter-Glo cell viability assay; type: cell-based
Procedure: as §1

[4] = tested on: OCI-Ly3; assay: CellTiter-Glo cell viability assay; type: cell-based
Procedure: as §1

[5] = tested on: OCI-Ly19; assay: CellTiter-Glo cell viability assay; type: cell-based; settings: Homo sapiens, 72 hours
Procedure: as §1

[6] = tested on: BCWM.1; assay: CellTiter-Glo cell viability assay; type: cell-based
Procedure: as §1

[7] = tested on: RPCIWM-1; assay: CellTiter-Glo cell viability assay; type: cell-based; settings: 72 hours
Procedure: as §1

[8] = target: HCK (Homo sapiens (Human), UniProt P08631); assay: Invitrogen Select Screening kinase assay; type: biochemical; settings: in vitro, read-out: HCK IC50 (nM) Inv
Chain of HCK (P08631 whole entry): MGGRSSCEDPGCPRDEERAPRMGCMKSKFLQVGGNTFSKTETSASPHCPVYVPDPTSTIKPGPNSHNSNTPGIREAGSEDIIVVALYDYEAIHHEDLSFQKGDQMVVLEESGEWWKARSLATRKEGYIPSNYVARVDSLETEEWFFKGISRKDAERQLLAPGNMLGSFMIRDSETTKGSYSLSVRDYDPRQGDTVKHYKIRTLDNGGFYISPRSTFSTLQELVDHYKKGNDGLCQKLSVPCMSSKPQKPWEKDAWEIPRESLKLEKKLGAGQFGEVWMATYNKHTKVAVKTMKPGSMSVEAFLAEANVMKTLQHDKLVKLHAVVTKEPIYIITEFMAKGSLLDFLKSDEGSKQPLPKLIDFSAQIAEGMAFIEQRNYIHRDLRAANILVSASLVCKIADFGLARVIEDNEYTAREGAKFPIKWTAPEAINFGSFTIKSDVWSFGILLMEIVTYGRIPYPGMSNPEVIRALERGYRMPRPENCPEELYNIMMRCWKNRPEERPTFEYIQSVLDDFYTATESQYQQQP

Chain of BTK (Q06187 whole entry): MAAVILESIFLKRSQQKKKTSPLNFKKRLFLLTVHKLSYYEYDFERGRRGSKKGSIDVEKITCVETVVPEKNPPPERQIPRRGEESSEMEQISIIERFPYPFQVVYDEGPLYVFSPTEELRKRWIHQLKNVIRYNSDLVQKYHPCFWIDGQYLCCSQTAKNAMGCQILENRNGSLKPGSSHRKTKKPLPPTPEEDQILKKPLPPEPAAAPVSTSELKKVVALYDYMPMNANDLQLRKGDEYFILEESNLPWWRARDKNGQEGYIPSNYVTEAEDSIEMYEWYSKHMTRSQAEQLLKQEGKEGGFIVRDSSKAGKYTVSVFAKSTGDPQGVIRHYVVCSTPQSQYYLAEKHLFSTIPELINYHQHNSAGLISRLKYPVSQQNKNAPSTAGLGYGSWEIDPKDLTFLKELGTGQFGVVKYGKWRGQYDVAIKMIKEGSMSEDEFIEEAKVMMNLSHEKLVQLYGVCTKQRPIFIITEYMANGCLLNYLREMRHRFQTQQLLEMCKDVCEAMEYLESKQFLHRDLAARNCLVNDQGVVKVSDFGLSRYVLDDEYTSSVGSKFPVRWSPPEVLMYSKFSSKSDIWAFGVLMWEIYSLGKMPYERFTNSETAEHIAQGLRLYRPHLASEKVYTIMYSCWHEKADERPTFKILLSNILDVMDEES

Compound: CCN1CCN(Cc2ccc(C(=O)Nc3ccc(C)c(NC(=O)c4cncc(-c5cccs5)c4)c3)cc2C(F)(F)F)CC1 [I-1, N-(5-(4-((4-ethylpiperazin-1-yl)methyl)-3-(trifluoromethyl)benzamido)-2-methylphenyl)-5-(thiophen-2-yl)nicotinamide]
IC50 [1]: 22.9 nM | EC50 ([2]; Homo sapiens, Ramos): 4150 nM | EC50 ([3]; 72 h): 459 nM | EC50 ([4]; Homo sapiens, OCI-Ly3, 72 h): 2900 nM | EC50 [5]: 552 nM | EC50 ([6]; BCWM1, 72 h): 38 nM

Compound: Cc1cn(-c2cc(NC(=O)c3ccc(C)c(NC(=O)c4cncc(-c5cccs5)c4)c3)cc(C(F)(F)F)c2)cn1 [I-3, N-(2-methyl-5-((3-(4-methyl-1H-imidazol-1-yl)-5-(trifluoromethyl)phenyl)carbamoyl)phenyl)-5-(thiophen-2-yl)nicotinamide]
IC50 [1]: 196 nM | EC50 ([2]; Homo sapiens, Ramos): 555 nM | EC50 ([3]; 72 h): 355 nM | EC50 [7]: 725 nM | EC50 ([4]; Homo sapiens, OCI-Ly3, 72 h): 411 nM | EC50 [5]: 508 nM | EC50 ([6]; BCWM1, 72 h): 141 nM

Compound: Cc1ccc(C(=O)Nc2cc(N3CCN(C)CC3)cc(C(F)(F)F)c2)cc1NC(=O)c1cncc(-c2cccs2)c1 [I-4, N-(2-methyl-5-((3-(4-methylpiperazin-1-yl)-5-(trifluoromethyl)phenyl)carbamoyl)phenyl)-5-(thiophen-2-yl)nicotinamide]
IC50 [1]: 459 nM

Compound: CCN1CCN(c2ccc(NC(=O)c3ccc(C)c(NC(=O)c4cncc(-c5cccs5)c4)c3)cc2C(F)(F)F)CC1 [I-5, N-(5-((4-(4-ethylpiperazin-1-yl)-3-(trifluoromethyl)phenyl)carbamoyl)-2-methylphenyl)-5-(thiophen-2-yl)nicotinamide]
IC50 [1]: 3910 nM | EC50 ([2]; Homo sapiens, Ramos): 989 nM | EC50 ([3]; 72 h): 1090 nM | EC50 [7]: 0.02 nM | EC50 ([4]; Homo sapiens, OCI-Ly3, 72 h): 2160 nM | EC50 [5]: 1560 nM | EC50 ([6]; BCWM1, 72 h): 365 nM

Compound: Cc1ccc(C(=O)Nc2cc(N3CCOCC3)cc(N3CCOCC3)c2)cc1NC(=O)c1cncc(-c2cccs2)c1 [I-7, N-(5-((3,5-dimorpholinophenyl)carbamoyl)-2-methylphenyl)-5-(thiophen-2-yl)nicotinamide]
IC50 [1]: 3420 nM | EC50 ([2]; Homo sapiens, Ramos): 2380 nM | EC50 ([3]; 72 h): 1760 nM | EC50 [7]: 4800 nM | EC50 ([4]; Homo sapiens, OCI-Ly3, 72 h): 3540 nM | EC50 [5]: 2970 nM | EC50 ([6]; BCWM1, 72 h): 180 nM

Compound: CCN1CCN(Cc2ccc(NC(=O)c3ccc(C)c(NC(=O)c4cncc(-c5cnoc5)c4)c3)cc2C(F)(F)F)CC1 [I-8]
IC50 [8]: 5.33 nM | IC50 [1]: 69.7 nM

Compound: CCN1CCN(Cc2ccc(NC(=O)c3ccc(C)c(NC(=O)c4cncc(-c5cnn(C)c5)c4)c3)cc2C(F)(F)F)CC1 [I-9]
IC50 [8]: 2.43 nM | IC50 [1]: 25.3 nM

EC50 [2]: 60 nM | EC50 ([4]; 72 hours): 161 nM
Compound: N-(2-chloro-5-((4-((4- ethylpiperazin-1-yl)methyl)- 3-(trifluoromethyl)phenyl) carbamoyl)phenyl)-5- (thiophen-2-yl)nicotinamide [I-2]
EC50 ([3]; 72 hours): 16 nM | EC50 [7]: 110 nM | EC50 ([6]; 72 hours): 12 nM
